Test results from publication PMC12222587, “A2B adenosine receptor-triggered intracellular calcium mobilization: Cell type-dependent involvement of Gi, Gq, Gs proteins and protein kinase C” (Purinergic Signalling, 2025).
Entries after “also recorded” stand apart in the source; their conditions may differ. One block for each molecule: values may come before it. *1 amine or outer side, *2 acyl side, *3 side chain or, on linkers, in order; H or OH if unused. Where a SMILES comes first, the peptide text is derived from it. Bridges are numbered along the chain shown (N, C = ends). [ ]: non-standard residue; d: D form. The star is where a group is joined. Leu(3R-OH,Nα-propionyl) = CCC(=O)N[C@H](C(=O)*)[C@H](O)C(C)C; X1 = CC(C)[C@@H](O[*:3])[C@H](N[*:1])C(=O)[*:2]; NMeT = CN[C@H](C(=O)O)[C@@H](C)O; dPhLac = O=C(O)[C@H](O)Cc1ccccc1; NMeA = CN[C@@H](C)C(=O)O; NMeDha = C=C(NC)C(=O)O

How the values were obtained:
[1] = tested on: endogenous adenosine receptors; assay: cAMP accumulation, MDA-MB-231 cells expressing endogenous adenosine receptors; assay type: cell-based, human
Description: (§1) HEK293, T24 bladder cancer and MDA-MB-231 breast cell lines were cultured in DMEM medium containing 10% fetal bovine serum, 100 units/ml penicillin, 100 μg/ml streptomycin, and 2 μmol/ml glutamine. For the assay of 3′,5′-cyclic adenosine monophosphate (cAMP), cells were plated in 96-well (4 × 10^4 cells/well) clear plates in 100 μl of medium overnight. Cell culture medium was then replaced with 80 µl HBSS buffer containing 20 mM HEPES, phosphodiesterase inhibitor rolipram (10 μM), and 3 units/ml adenosine deaminase (Worthington Biochemical, Lakewood, NJ, USA) for 30 min followed by agonist addition to the mixture, which was then incubated for 20 min. The treatment of YM or FR was 20 min before agonist addition.

P2Y1R [2] = molecular target: T1, P2Y1R (Homo sapiens, UniProt P47900); assay: Intracellular calcium mobilization, HEK293 cells, native P2Y1R (MRS2365); assay type: cell-based
T1 sequence (P47900 whole entry): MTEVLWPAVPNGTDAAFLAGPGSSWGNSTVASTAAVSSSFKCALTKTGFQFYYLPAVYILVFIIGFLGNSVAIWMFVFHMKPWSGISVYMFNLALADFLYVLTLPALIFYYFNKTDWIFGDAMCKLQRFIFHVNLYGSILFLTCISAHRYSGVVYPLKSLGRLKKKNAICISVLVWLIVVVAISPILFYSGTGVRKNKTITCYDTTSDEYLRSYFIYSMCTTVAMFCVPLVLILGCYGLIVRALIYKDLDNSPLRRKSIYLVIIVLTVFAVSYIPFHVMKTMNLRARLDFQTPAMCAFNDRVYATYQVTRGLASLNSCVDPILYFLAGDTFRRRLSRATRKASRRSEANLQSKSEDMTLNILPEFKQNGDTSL

A1AR [3] = molecular target: T2, A1AR (Homo sapiens, UniProt P30542); assay: Intracellular calcium mobilization, HEK293 cells expressing recombinant A1AR (CCPA); assay type: cell-based
T2 construct: expressed in transfected cells
T2 sequence (P30542 1-326): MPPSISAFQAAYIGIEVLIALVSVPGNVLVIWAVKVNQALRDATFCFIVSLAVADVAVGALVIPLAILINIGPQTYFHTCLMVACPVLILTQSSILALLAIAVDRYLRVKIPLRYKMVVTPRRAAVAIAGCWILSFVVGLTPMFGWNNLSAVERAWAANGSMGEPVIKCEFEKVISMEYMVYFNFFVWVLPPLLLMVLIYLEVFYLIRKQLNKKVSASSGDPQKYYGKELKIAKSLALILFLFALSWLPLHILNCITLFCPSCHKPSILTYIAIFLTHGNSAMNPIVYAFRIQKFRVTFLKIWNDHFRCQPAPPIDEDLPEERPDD

A1AR [4] = molecular target: T2, A1AR; assay: cAMP accumulation, HEK293 cells, A1AR-mediated inhibition of forskolin-stimulated cAMP (CCPA); assay type: cell-based
Description: as §1

A2AAR = molecular target: T3, A2AAR (Homo sapiens, UniProt P29274); assay: cAMP accumulation, HEK293 cells, A2AAR-mediated stimulation (CGS21680); assay type: cell-based
T3 construct: host or cells: HEK293
T3 sequence (P29274 whole entry): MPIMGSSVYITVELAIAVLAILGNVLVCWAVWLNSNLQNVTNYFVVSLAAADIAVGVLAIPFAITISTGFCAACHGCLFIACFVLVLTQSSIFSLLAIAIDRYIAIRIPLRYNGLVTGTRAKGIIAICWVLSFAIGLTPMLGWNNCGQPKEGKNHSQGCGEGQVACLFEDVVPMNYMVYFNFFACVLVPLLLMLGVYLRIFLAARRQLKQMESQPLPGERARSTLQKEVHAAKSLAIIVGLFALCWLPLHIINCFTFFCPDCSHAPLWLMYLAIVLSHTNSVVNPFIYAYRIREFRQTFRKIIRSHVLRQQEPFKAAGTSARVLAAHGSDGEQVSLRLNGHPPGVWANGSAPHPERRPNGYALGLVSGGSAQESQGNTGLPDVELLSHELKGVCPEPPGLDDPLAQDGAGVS
Description: as §1

A2BAR = molecular target: T4, A2BAR (Homo sapiens, UniProt P29275); assay: Intracellular calcium mobilization, T24 bladder cancer cells, native A2BAR (NECA); assay type: cell-based; conditions: T24 cells
T4 sequence (P29275 1-332): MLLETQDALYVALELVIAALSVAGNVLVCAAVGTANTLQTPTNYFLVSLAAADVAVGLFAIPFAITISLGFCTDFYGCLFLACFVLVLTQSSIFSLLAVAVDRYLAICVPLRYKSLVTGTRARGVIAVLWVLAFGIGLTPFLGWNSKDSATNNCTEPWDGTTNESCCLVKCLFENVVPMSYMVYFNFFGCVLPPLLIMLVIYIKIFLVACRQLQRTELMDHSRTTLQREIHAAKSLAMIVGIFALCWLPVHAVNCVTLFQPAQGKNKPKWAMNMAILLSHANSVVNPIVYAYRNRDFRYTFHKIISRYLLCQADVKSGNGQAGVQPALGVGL

P2Y1R [5] = molecular target: T1, P2Y1R; assay: Intracellular calcium mobilization, T24 bladder cancer cells, native P2Y1R (MRS2365); assay type: cell-based; conditions: for Effect on native P2Y1R (MRS2365)-triggered calcium mobilization: YM 300 nM, FR 300 nM, PTX 200 ng/ml overnight
β2-adrenergic receptor = β2-adrenergic receptor (Homo sapiens, UniProt P07550); assay: Intracellular calcium mobilization, T24 bladder cancer cells, endogenous β2-adrenergic receptor; assay type: cell-based; conditions: T24 cells, FR 300 nM, PMA 1 µM
β2-adrenergic receptor, sequence (P07550 whole entry): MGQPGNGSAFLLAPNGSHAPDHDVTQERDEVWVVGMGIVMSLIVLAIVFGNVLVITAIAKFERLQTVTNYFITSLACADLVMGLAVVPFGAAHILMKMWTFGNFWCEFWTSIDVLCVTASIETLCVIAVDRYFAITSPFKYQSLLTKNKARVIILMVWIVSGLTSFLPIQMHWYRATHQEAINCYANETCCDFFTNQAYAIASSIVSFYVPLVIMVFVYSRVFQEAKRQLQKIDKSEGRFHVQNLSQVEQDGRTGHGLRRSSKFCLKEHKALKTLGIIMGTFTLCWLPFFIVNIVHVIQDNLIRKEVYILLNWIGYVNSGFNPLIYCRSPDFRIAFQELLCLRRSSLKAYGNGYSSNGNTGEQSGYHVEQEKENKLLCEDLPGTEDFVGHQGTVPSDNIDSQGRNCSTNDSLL

A2B adenosine receptor = tested on: A2B adenosine receptor; set-up: method as in PMID 26954502; conditions: CHO cells; FR 300 nM; cited from earlier work
A1AR [6] = conditions: CHO cells; FR 300 nM; cited from earlier work
A1AR [7] = conditions: overexpressed in CHO or 1321N1 astrocytoma cells; FR 100 nM; cited from earlier work
[8] = tested on: M2 muscarinic acetylcholine receptor; conditions: overexpressed in CHO or 1321N1 astrocytoma cells; FR 100 nM; cited from earlier work
P2Y12 receptor = tested on: P2Y12 receptor; set-up: method as in PMID 26954502; conditions: overexpressed in CHO or 1321N1 astrocytoma cells; FR 100 nM; cited from earlier work
A1AR [9] = conditions: FR 100 nM; cited from earlier work
A1AR [10] = conditions: FR 100 nM; small but significant; cited from earlier work
[11] = tested on: M3 acetylcholine receptor; set-up: method as in PMID 26954502; conditions: FR at both 100 and 300 nM; cited from earlier work
P2Y1 receptor [12] = tested on: P2Y1 receptor; set-up: method as in PMID 26954502; conditions: FR at both 100 and 300 nM; cited from earlier work
[13] = tested on: M3 acetylcholine receptor; set-up: method as in PMID 26954502; conditions: FR at 100 and 300 nM; cited from earlier work
P2Y1 receptor [14] = tested on: P2Y1 receptor; set-up: method as in PMID 26954502; conditions: FR at 100 and 300 nM; cited from earlier work
[15] = GO 20 min, then PMA 20 min before agonist

EC50 [1]: 2240 ± 850 nM
SMILES: CCNC(=O)[C@H]1O[C@@H](n2cnc3c(N)nc(NCCc4ccc(CCC(=O)O)cc4)nc32)[C@H](O)[C@@H]1O [CGS21680]

SMILES: C=C1C(=O)N[C@@H](C)C(=O)N(C)[C@@H](C)C(=O)N[C@@H]([C@H](OC(=O)[C@@H](NC(=O)CC)[C@H](O)C(C)C)C(C)C)C(=O)N(C)[C@@H]([C@@H](C)OC)C(=O)O[C@H](C(C)C)[C@H](NC(C)=O)C(=O)O[C@H](Cc2ccccc2)C(=O)N1C [FR, FR900359] (Ac-[X1][dPhLac][NMeDha]A[NMeA][X1](Leu(3R-OH,Nα-propionyl))[NMeT](Me); ester 1-C)
Effect on P2Y1R (MRS2365)-mediated calcium mobilization (P2Y1R [2]; Gq/11 siRNA 250 nM, PTX 200 ng/ml overnight, FR, YM 20 min before agonist): inhibited; also recorded: fully sensitive | IC50 (P2Y1R [2]; agonist MRS2365 1 µM, read-out: IC50 to inhibit P2Y1R-mediated calcium mobilization): 13.2 ± 3.2 nM | Effect on A1AR (CCPA)-mediated calcium mobilization (A1AR [3]; HEK293 cells overexpressing A1AR, Gq/11 siRNA 250 nM, PTX 200 ng/ml overnight, FR, YM 20 min before agonist): inhibited; also recorded: YM and FR – fully sensitive (2) | IC50 (A1AR [3]; HEK293 cells, overexpressed A1AR, agonist CCPA 1 µM, read-out: IC50 for inhibition of A1AR-mediated calcium mobilization): 8.66 ± 3.23 nM | Effect on A1AR-mediated inhibition of cAMP accumulation (A1AR [4]): did not affect | Effect on A2AAR-mediated stimulation of cAMP accumulation (A2AAR): did not affect | Effect on native A2BAR (NECA)-triggered calcium mobilization (A2BAR; YM 300 nM, FR 300 nM, PTX 200 ng/ml, CTX 500 ng/ml overnight, other inhibitors 20 min before NECA): FR and YM insensitive (4); Gαq/11 siRNA insensitive (4) | Effect on native P2Y1R (MRS2365)-triggered calcium mobilization (P2Y1R [5]): completely inhibited | Effect on isoproterenol-induced calcium mobilization (β2-adrenergic receptor) (β2-adrenergic receptor): diminished | Effect on formoterol-induced calcium mobilization (β2-adrenergic receptor) (β2-adrenergic receptor; YM 1 µM, PTX 200 ng/ml, CTX 500 ng/ml): diminished | Effect on A2BAR-Gαs-mediated cAMP accumulation (A2B adenosine receptor): no effect | Effect on A1AR-Gαi-mediated inhibition of forskolin-stimulated cAMP accumulation (A1AR [6]): no effect | Effect on Giβγ-mediated calcium mobilization, or IP1 accumulation, upon A1AR activation (A1AR [7]): nearly complete inhibition | Effect on Giβγ-mediated calcium mobilization, or IP1 accumulation, upon M2 receptor activation [8]: nearly complete inhibition | Effect on Giβγ-mediated calcium mobilization, or IP1 accumulation, upon P2Y12R activation (P2Y12 receptor): nearly complete inhibition | Effect on A1AR-mediated Akt1/2/3 phosphorylation (A1AR [9]): no effect | Inhibition of A1AR-mediated ERK1/2 activity (A1AR [10]): < 30% | Effect on ERK1/2 activity triggered by the M3 acetylcholine receptor [11]: only partially inhibited | Effect on ERK1/2 activity triggered by the P2Y1 receptor (P2Y1 receptor [12]): only partially inhibited | Effect on calcium response triggered by the M3 acetylcholine receptor [13]: completely inhibited | Effect on calcium response triggered by the P2Y1 receptor (P2Y1 receptor [14]): completely inhibited

SMILES: COc1ccc2c(c1)c(C1=C(c3c[nH]c4ccccc34)C(=O)NC1=O)cn2CCCN(C)C [GO]
Effect of pretreatment on the PMA effect at A2BAR-triggered Ca2+ increase (A2BAR; [15]): eliminated the effect of PMA | Effect of pretreatment on the PMA effect at P2Y1R-triggered Ca2+ increase (P2Y1R [5]; [15]): eliminated the effect of PMA | Effect on native P2Y1R (MRS2365)-triggered calcium mobilization (P2Y1R [5]): significantly enhanced

EC50 (P2Y1R [5]; absence of PTX): 1.38 ± 0.26 nM
SMILES: CSc1nc(N)c2ncn([C@H]3[C@H](O)[C@H](O)[C@]4(COP(=O)(O)OP(=O)(O)O)C[C@H]34)c2n1 [MRS2365]

SMILES: CCNC(=O)[C@H]1O[C@@H](n2cnc3c(N)ncnc32)[C@H](O)[C@@H]1O [NECA, adenosine-5′-N-ethyluronamide]
EC50 [1]: 73.1 ± 18.2 nM
